Source: patent US4645840A, “Intermediates for preparing 1,2-dihydropyrido[3,4-b]-pyrazines” (Southern Research Institute, priority 1986, dated 1987)
Read-outs that look alike come from different tables or passages of the source.

Key:
several neoplasms = details: cited from earlier work
[1] = tested on: lymphoid leukemia L1210 cells; test: Mitotic index of cultured lymphoid leukemia L1210 cells; format: cell-based
[2] = tested on: lymphocytic leukemia P388 cells; test: Activity against lymphocytic leukemia P388 (10^6 tumor cell implant, i.p.) in mice; format: in vivo; details: P388, 10^6 cells i.p.
Excerpt: (c) Lymphocytic leukemia P388. R. I. Geran, N. H. Greenbert, M. M.
MacDonald, A. M. Schumacker, and B. J. Abbott, Cancer Chemother. Rep., 3

[3] = tested on: lymphoid leukemia L1210 cells; test: Inhibition of proliferation of cultured lymphoid leukemia L1210 cells; format: cell-based; details: Mus musculus
Method: The 1,2-dihydropyrido[3,4-b]pyrazines of this invention are powerful inhibitors of the proliferation of cultured lymphoid luekemia L1210 cells as shown in Table IV.
(a) Concentration of agent that inhibits proliferation of cultured
lymphoid leukemia L1210 cells to 50% control growth during 48 hours. G. P
Wheeler, B. J. Bowdon, J. A. Werline, D. J. Adamson and C. Temple, Jr.,

[4] = tested on: Vincristine-resistant line of P388; test: Activity against vincristine-resistant line of P388 in mice; format: in vivo; details: for activity against P388 cells resistant to vincristine: in mice
Excerpt: (g) Vincristineresistant line of P388. L. J. Wilkoff and E. A. Dulmadge, […]

[5] = tested on: Methotrexate-resistant line of P388 (tumor P7); test: Activity against methotrexate-resistant line of P388 in mice; format: in vivo; details: methotrexate-resistant P388, schedule day 1, 100 mg/kg
Method: (e) Methotrexateresistant line of P388 (designated tumor P7 by the Drug
Evaluation Branch, National Cancer Institute). In mice with 10^6 cell
implant (IP), methotrexate at a dose of 2 mg/kg on the qd 1-9 schedule
gave a 2log cell kill against the sensitive line of P388 and a 2log
increase in cells against the methotrexateresistant line of P388.

KB cell = details: cited from earlier work
[6] = tested on: lymphocytic leukemia P388 cells; details: sensitive line of P388, 10^6 cell implant IP, 2 mg/kg, qd 1-9; cited from earlier work
[7] = tested on: Methotrexate-resistant line of P388 (tumor P7); details: methotrexate-resistant line of P388, 10^6 cell implant IP, 2 mg/kg, qd 1-9; cited from earlier work
[8] = L1210, inhibits proliferation to 50% control growth during 48 hours (footnote a), read-out: ID50 (the source's name)

For CCOC(=O)Nc1cc2c(c(N)n1)N=C(CN(C)c1ccccc1)CN2 [NSC-181928], which “activity against several neoplasms” value (several neoplasms) is on record?
Its value is “active against several neoplasms”.

With CCOC(=O)Nc1cc2c(c(N)n1)N=C(CN(C)c1ccc(C(=O)OC)cc1)CN2 [R = 4-CH3 O2 CC6 H4 N(CH3)CH2 (R4 = H), reference compound] as the molecule, how does the “Mitotic Index 12 h” value ([1]; 0.1 μM) read?
Its value is 0.44.

And the “Mitotic Index 12 h” value ([1]; 0.3 μM)?
Its value is 0.61.

What about the “% ILS” value ([2]; schedule days 1-9, 25 mg/kg) of the same molecule?
The value was 30%.

What about the IC50 [3, 8] of the same molecule?
Its IC50 is 58 nM.

With CCOC(=O)Nc1cc2c(c(N)n1)N=C(CN(C)c1ccc(OC)cc1)C(C)N2 (centres unmarked) [R = 4-CH3 OC6 H4 N(CH3)CH2 (R4 = CH3), Ethyl 5-Amino-1,2-dihydro-3-[[N-(4-methoxyphenyl)-N-methylamino]methyl]-2-methylpyrido[3,4-b]pyrazine-7-carbamate] as the molecule, how does the “Mitotic Index 12 h” value ([1]; 0.3 μM) read?
Its value is 0.66.

What about the “% ILS” value ([2]; schedule days 1-5, 48 mg/kg) of the same molecule?
The value was 53%.

And the IC50 [3, 8]?
The IC50 was 5.5 nM.

Which “Mitotic Index 12 h” value ([1]; 0.03 μM) does the source give for CCOC(=O)Nc1cc2c(c(N)n1)N=C(CN(C)c1ccc(OC)cc1)CN2 [R = 4-CH3 OC6 H4 N(CH3)CH2 (R4 = H)] here?
Its value is 0.64.

And the “Mitotic Index 12 h” value ([1]; 0.3 μM)?
Its value is 0.49.

What about the “% ILS” value ([2]; schedule day 1, 25 mg/kg) of the same molecule?
The value was 133%.

And the “% ILS” value ([2]; schedule day 1, 50 mg/kg)?
Its value is 80%.

And the “activity against P388 cells resistant to vincristine” value [4]?
The value was “active in mice against P388 cells that were resistant to vincristine”.

What about the “% ILS” value ([4]; vincristine-resistant P388, schedule day 1, 25 mg/kg) of the same molecule?
The value was 150%.

What about the IC50 [3, 8] of the same molecule?
Its IC50 is 7.9 nM.

What does the source list for CCOC(=O)Nc1cc2c(c(N)n1)N=C(CN(C)c1ccc(Cl)cc1)CN2 [R = 4-ClC6 H4 N(CH3)CH2 (R4 = H)]?
Mitotic Index 12 h ([1]; 0.03 μM): 0.71; % ILS ([2]; schedule day 1, 100 mg/kg): 65%; IC50 [3, 8]: 14.5 nM

Which results are given for CCOC(=O)Nc1cc2c(c(N)n1)N=C(CCc1ccccc1)CN2 [R = C6 H5 CH2 CH2 (R4 = H), Ethyl 5-Amino-1,2-dihydro-3-(2-phenylethyl)pyrido(3,4-b)pyrazine-7-carbamate]?
Mitotic Index 24 h ([1]; 0.3 μM): 0.33; % ILS ([2]; schedule day 1, 100 mg/kg): 29%; IC50 [3, 8]: 13 nM

Which results are given for CCOC(=O)Nc1cc2c(c(N)n1)N=C(CN(C)c1ccccc1)CN2 [R = C6 H5 N(CH3)CH2 (R4 = H), Ethyl 5-Amino-1,2-dihydro-3-[(N-methyl-N-phenyl)aminomethyl]pyrido[3,4-b]pyrazine-7-carbamate]?
Mitotic Index 12 h ([1]; 0.03 μM): 0.77; Mitotic Index 24 h ([1]; 0.3 μM): 0.80; % ILS [5]: 66%; % ILS ([2]; schedule day 1, 100 mg/kg): 114%; activity against P388 cells resistant to vincristine [4]: active in mice against P388 cells that were resistant to vincristine; % ILS ([4]; vincristine-resistant P388, schedule day 1, 67 mg/kg): 90%; IC50 [3, 8]: 8.4 nM

With CC[C@]1(O)C[C@H]2CN(CCc3c([nH]c4ccccc34)[C@@](C(=O)OC)(c3cc4c(cc3OC)N(C=O)[C@H]3[C@@](O)(C(=O)OC)[C@H](OC(C)=O)[C@]5(CC)C=CCN6CC[C@]43[C@@H]65)C2)C1 [Vincristine, reference compound] as the molecule, how does the IC50 ([3]; L1210, 48 h, read-out: ID50) read?
Its IC50 is 1 nM.

Which “cytotoxicity in the KB cell culture screen” value (KB cell) does the source give for CCOC(=O)Nc1cc2c(c(N)n1)N=C(CN(C)c1ccc(C(=O)OC)cc1)CN2 [drawing 5] here?
Its value is “showed cytotoxicity in the KB cell culture screen”.

For CN(Cc1cnc2nc(N)nc(N)c2n1)c1ccc(C(=O)N[C@@H](CCC(=O)O)C(=O)O)cc1 [methotrexate], which log cell kill [6] is on record?
Its log cell kill is 2 log.

What about the “log increase in cells” value [7] of the same molecule?
The value was 2 log.
